Assay results as given in paper PMC9236245, “Glycyrrhiza uralensis promote the metabolism of toxic components of Aconitum carmichaeli by CYP3A and alleviate the development of chronic heart failure” (PLoS ONE, 2022).
Values joined by “and” are separate entries in the source; they are usually repeats but may differ in a detail not shown here. Equal values may be shown once.

What was measured:
Assay type in all cases: in vivo
CYP3A2 mRNA = CYP3A2 mRNA expression in rat liver after 14 days dosing (RT-PCR); conditions: positive induction 0.08 g/kg/D, single replicates
From the text: (§1) All animal procedures, including killing, were approved by the Institutional Animal Care and Use Committee at Medical College of Shanghai University of TCM. 25 SD rats, weighing 180–200 g, were purchased from Shanghai SLAC Laboratory Animal company and fed in SPF environmental condition. The rats were randomly divided into negative control, phenobarbital positive induction (0.08 g / kg / D) and Glycyrrhiza groups with different concentrations (0.33 g / kg / D, 1 g / kg / D and 3 g / kg / D), with 5 rats in each group, intragastric administration for 14 days. The phenobarbital induced group was given intraperitoneal injection three days before treatment. The animals were killed by CO2 asphyxiation, liver microsomes were prepared and were used to detect the expression of CYP3A1 / 2 mRNA in liver tissue.
(§2) Total RNA was extracted using Trizol reagent according to the manufacturer’s instructions. 1μg of total RNA was transcribed to cDNA using the PrimeScriptTM RT Master Mix kit (TaKaRa, China). Quantitative RT-PCR was performed in a reaction volume of 20μL cDNA on ABI system (Applied Biosystems, Life Technologies). The average cycle thresholds (Ct) were employed to quantify fold-change. The 2^-△△CT method was reported to calculate relative gene expression levels.

CYP3A1 mRNA = CYP3A1 mRNA expression in rat liver after 14 days dosing (RT-PCR); conditions: positive induction 0.08 g/kg/D, single replicates
From the text: as §1, §2

CHF rat model = assay: ATP, ADP and AMP in left ventricular myocardium (HPLC) of ADR-induced CHF rats; conditions: 5 mL/kg/D gavage 4 weeks
Description: According to reference, the rat model of CHF was established by intraperitoneal injection of ADR (2.5 mg / kg) once a week for six weeks. 6 weeks later, the rats were randomly divided into model group, Aconitum (0.3 g / mL), Glycyrrhizae combind with Aconitum (0.6 g / mL) and Captopril (1.25 mg / mL) group. Each treatment group was given 5 mL / kg / D by gavage for 4 weeks, the normal and model group were given the same volume of distilled water by gavage. After the last administration, the rats were killed by CO2 asphyxia, and the indexes were determined.
Weighed 100 mg of left ventricular myocardium of rats, cut into pieces, added 500 μL 4.2% perchloric acid, homogenized in ice bath, 3 000 r / min, 4°C for 15 min. Took 200 μL of the supernatant, added 135 μL of 1 mol / L NaOH, adjusted the pH to about 6.0, shaked and mixed, 8 000 r / min, 4°C for 10 min, and took 20 μL of the supernatant for HPLC analysis. There was a good linear relationship between the peak area measured by HPLC and the concentrations of ATP, AMP and ADP, and the content was calculated according to the standard curve.

Row | Compound | CYP3A2 mRNA (CYP3A2 mRNA) | CYP3A1 mRNA (CYP3A1 mRNA) | ADP level in left ventricular myocardium, difference vs model group (CHF rat model)
1 | CCC1(c2ccccc2)C(=O)NC(=O)NC1=O [Phenobarbital] | 3.986 and 3.344 and 3.449 | 8.832 and 7.88 and 8.097 | 
2 | C[C@H](CS)C(=O)N1CCC[C@H]1C(=O)O [captopril, Captopril] |  |  | -0.07185 ± 0.02716
